In patent publication US12532884B2, “Fungicidal compositions” (SYNGENTA CROP PROTECTION AG, priority 2020, dated 2026):
Where two headings read alike, the source gives them in different places.

Legend:
[1] = tested on: Septoria glycines; assay: Example C3: mixtures against Septoria glycines (brown spot), liquid culture; format: cell-based; details: for inhibition at 0.1 ppm / inhibition at 0.3 ppm: Septoria glycines, read-out: Activity (%)
From the text: This occurs whenever the action of an active ingredient combination is greater than the sum of the actions of the individual components. The action to be expected E for a given active ingredient combination obeys the so-called COLBY formula and can be calculated as follows (COLBY, S. R. “Calculating synergistic and antagonistic responses of herbicide combination”. Weeds, Vol. 15, pages 20-22; 1967): • ppm=milligrams of active ingredient (=a.i.) per liter of spray mixture • X=% action by active ingredient A) using p ppm of active ingredient • Y=% action by active ingredient B) using q ppm of active ingredient.
(§1) According to COLBY, the expected (additive) action of active ingredients A)+B) using p+q ppm of active ingredient is:
(§2) If the action actually observed (O) is greater than the expected action (E), then the action of the combination is super-additive, i.e. there is a synergistic effect. In mathematical terms, synergism corresponds to a positive value for the difference of (O-E). In the case of purely complementary addition of activities (expected activity), said difference (O-E) is zero. A negative value of said difference (O-E) signals a loss of activity compared to the expected activity.
Mycelia fragments or conidia suspensions of a fungus prepared either freshly from liquid cultures of the fungus or from cryogenic storage, are directly mixed into nutrient broth. DMSO solutions of the test compound (max. 10 mg/mL) are diluted with 0.025% Tween20 by a factor of 50 and 10 μl of this solution is pipetted into a microtiter plate (96-well format). […] The test plates are incubated in the dark at 24° C. and 96% relative humidity. The inhibition of fungal growth is determined photometrically after 2 to 7 days, depending on the pathosystem, and percent antifungal activity relative to the untreated check is calculated.
Conidia of the fungus harvested from a fresh culture grown on artificial media, were directly mixed into nutrient broth (PDB potato dextrose broth). A DMSO solution of the test compounds was placed into a microtiter plate (96-well format) and the nutrient broth containing the fungal spores was added to it.
Fungicidal activity was evaluated on a 100-0 scale (100=no disease growth; 0=well completely covered by mycelium).

[2] = tested on: Phakopsora pachyrhizi; assay: Example D: preventative activity against Phakopsora pachyrhizi on soybean (whole plants sprayed, leaf disks inoculated); format: in vivo
From the text: (§3) Certain mixture compositions comprising a compound of formula (I) described above may show a synergistic effect. This occurs whenever the action of an active ingredient combination is greater than the sum of the actions of the individual components. The action to be expected E for a given active ingredient combination obeys the so-called COLBY formula and can be calculated as follows (COLBY, S. R. “Calculating synergistic and antagonistic responses of herbicide combination”. Weeds, Vol. 15, pages 20-22; 1967): • ppm=milligrams of active ingredient (=a.i.) per liter of spray mixture • X=% action by active ingredient A) using p ppm of active ingredient • Y=% action by active ingredient B) using q ppm of active ingredient.
as §1, §2
Whole soybean plants are treated with the recited active ingredients 4 weeks after planting. 1 day after spraying leaf disks are cut from the first trifoliate leaf. Five repetitions at each rate are conducted. The leaf disks are inoculated with Phakopsora pachyrhizi (Asian soybean rust) one day after treatment. Evaluation of the leaf disks is conducted 11 to 14 days after inoculation and the activity is derived from the relation of the treated vs untreated, infested check. (100=no disease, no damage to the leaf, 0=high infestation, leaf damaged heavily). The rates of the active ingredients used are given in the tables as g active ingredient (a.i.)/ha.

[3] = tested on: Septoria tritici; assay: Example C2: mixtures against Septoria tritici (leaf blotch), liquid culture; format: cell-based; details: for inhibition at 0.3 ppm: read-out: Activity (%)
From the text: as §3, §1, §2
Mycelia fragments or conidia suspensions of a fungus prepared either freshly from liquid cultures of the fungus or from cryogenic storage, are directly mixed into nutrient broth. DMSO solutions of the test compound (max. 10 mg/mL) are diluted with 0.025% Tween20 by a factor of 50 and 10 μl of this solution is pipetted into a microtiter plate (96-well format). The nutrient broth containing the fungal spores/mycelia fragments is then added to give an end concentration of the tested compound. The test plates are incubated in the dark at 24° C. and 96% relative humidity. The inhibition of fungal growth is determined photometrically after 2 to 7 days, depending on the pathosystem, and percent antifungal activity relative to the untreated check is calculated.
Conidia of the fungus from cryogenic storage were directly mixed into nutrient broth (PDB potato dextrose broth). A DMSO solution of the test compounds was placed into a microtiter plate (96-well format) and the nutrient broth containing the fungal spores was added to it.
The following mixture compositions at the reported concentration (in ppm) in tables C2-3 to C2-5 gave the following disease control in this test Septoria tritici (leaf blotch). Fungicidal activity was evaluated on a 100-0 scale (100=no disease growth; 0=well completely covered by mycelium).

[4] = single component, 0.1 ppm, 100-0 scale (100=no disease growth)
[5] = single component, 0.3 ppm, 100-0 scale (100=no disease growth)
[6] = Phakopsora pachyrhizi, foliar, applied alone, 4.5 g/ha, read-out: Observed Activity (% of untreated)
[7] = Phakopsora pachyrhizi, foliar, applied alone, 9 g/ha, read-out: Observed Activity (% of untreated)
[8] = Phakopsora pachyrhizi, foliar, applied alone, 18 g/ha, read-out: Observed Activity (% of untreated)
[9] = Phakopsora pachyrhizi, foliar, single active ingredient, 4.5 g/ha, read-out: Observed Activity (%)
[10] = Phakopsora pachyrhizi, foliar, single active ingredient, 9 g/ha, read-out: Observed Activity (%)
[11] = Phakopsora pachyrhizi, foliar, single active ingredient, 18 g/ha, read-out: Observed Activity (%)
[12] = single active ingredient, 4.5 g/ha
[13] = Phakopsora pachyrhizi, foliar, applied alone, 22.5 g/ha, read-out: Observed Activity (% of untreated)
[14] = Phakopsora pachyrhizi, foliar, applied alone, 45 g/ha, read-out: Observed Activity (% of untreated)
[15] = single active ingredient, 9 g/ha
[16] = single active ingredient, 18 g/ha
[17] = single component, 0.3 ppm, 100-0 scale
[18] = Phakopsora pachyrhizi, foliar, applied alone, read-out: Observed Activity (% of untreated)
[19] = Phakopsora pachyrhizi, foliar, single active ingredient, soybean, preventative, 100=no disease, read-out: Observed Activity (%)
[20] = Zymoseptoria tritici, single component, 0.3 ppm, 100-0 scale

CC(C)(C)[C@@H](O)[C@@H](Cc1ccc(Cl)cc1)n1cncn1 (racemic) [paclobutrazol]
inhibition at 0.1 ppm [1, 4]: 0%
inhibition at 0.3 ppm [1, 5]: 50%

CC(C)(C)C(O)(CCc1ccc(Cl)cc1)Cn1cncn1 (centres unmarked) [tebuconazole]
inhibition at 0.1 ppm [1, 4]: 70%

CON(C(=O)c1cn(C)nc1C(F)F)C(C)Cc1c(Cl)cc(Cl)cc1Cl (centres unmarked) [Pydiflumetofen]
Observed Activity (% of untreated) ([2]; applied alone, 22.5 g/ha): 0%
Observed Activity (% of untreated) ([2]; applied alone, 45 g/ha): 4%

COC(=O)N(OC)c1ccccc1COc1ccn(-c2ccc(Cl)cc2)n1 [Pyraclostrobin]
inhibition at 4.5 g/ha [2, 6]: 1%
inhibition at 9 g/ha [2, 7]: 1%
inhibition at 18 g/ha [2, 8]: 0%
inhibition at 4.5 g/ha [2, 9]: 1%
inhibition at 9 g/ha [2, 10]: 1%
inhibition at 18 g/ha [2, 11]: 0%

N#Cc1c[nH]cc1-c1cccc2c1OC(F)(F)O2 [fludioxonil]
inhibition at 0.1 ppm [1]: 0%
inhibition at 0.3 ppm [1]: 20%
inhibition at 0.3 ppm ([3]; Zymoseptoria tritici): 20%

Cn1cc(C(=O)Nc2cccc3c2[C@@H]2CC[C@H]3C2=C(Cl)Cl)c(C(F)F)n1 (racemic) [Benzovindiflupyr]
Observed Activity (% of untreated) ([2]; applied alone, 2.25 g/ha): 92%
Observed Activity (% of untreated) ([2]; applied alone, 4.5 g/ha): 94%
Observed Activity (%) ([2]; single active ingredient, 2.25 g/ha): 92%
Observed Activity (%) [2, 12]: 94%

CNC(=O)C(=N/OC)/C(C)=C\COc1ccn(-c2ccc(Cl)cc2Cl)n1 [(Z,2E)-5-[1-(2,4-dichlorophenyl)pyrazol-3-yl]oxy-2-methoxyimino-N,3-dimethyl-pent-3-enamide]
inhibition at 9 g/ha [2, 7]: 2%
inhibition at 18 g/ha [2, 8]: 3%
inhibition at 9 g/ha [2, 10]: 2%
inhibition at 18 g/ha [2, 11]: 3%

OC(Cc1ccccc1Cl)(Cn1nc[nH]c1=S)C1(Cl)CC1 (centres unmarked) [Prothioconazole]
inhibition at 22.5 g/ha [2, 13]: 74%
inhibition at 45 g/ha [2, 14]: 76%

CO/C=C(/C(=O)OC)c1ccccc1Oc1cc(Oc2ccccc2C#N)ncn1 [Azoxystrobin]
Observed Activity (% of untreated) ([2]; applied alone, 2.25 g/ha): 0%
Observed Activity (% of untreated) ([2]; applied alone, 4.5 g/ha): 15%
Observed Activity (% of untreated) ([2]; applied alone, 9 g/ha): 23%
Observed Activity (% of untreated) ([2]; applied alone, 18 g/ha): 9%
Observed Activity (%) [2, 12]: 0%
Observed Activity (%) [2, 15]: 2%
Observed Activity (%) [2, 16]: 26%

CC1(C)N=C(c2cnc3ccccc3c2)c2ccccc2C1(F)F [quinofumelin]
Activity (%) [3, 17]: 0%

CC(Cc1ccc(C(C)(C)C)cc1)CN1C[C@@H](C)O[C@@H](C)C1 (some centres unmarked) [Fenpropimorph, reference compound]
inhibition at 225 g/ha [2, 18]: 8%
inhibition at 450 g/ha [2, 18]: 43%
inhibition at 900 g/ha [2, 18]: 76%
inhibition at 225 g/ha [2, 19]: 8%
inhibition at 450 g/ha [2, 19]: 43%
inhibition at 900 g/ha [2, 19]: 76%
inhibition at 0.1 ppm [1, 4]: 50%
inhibition at 0.3 ppm [1, 5]: 70%

CCOC(=O)C1CC(=O)C(=C(O)C2CC2)C(=O)C1 (centres unmarked) [trinexapac-ethyl]
inhibition at 0.3 ppm [1, 5]: 0%

CCCCC(O)(Cn1cncn1)c1ccc(Cl)cc1Cl (centres unmarked) [hexaconazole]
inhibition at 0.1 ppm ([3]; Zymoseptoria tritici, single component, 0.1 ppm, 100-0 scale (100=no disease growth)): 70%

CON=C(C(=O)OC)c1ccccc1CON=C(C)c1cccc(C(F)(F)F)c1 [Trifloxystrobin]
inhibition at 2.25 g/ha ([2]; Phakopsora pachyrhizi, foliar, applied alone, 2.25 g/ha, read-out: Observed Activity (% of untreated)): 0%
inhibition at 4.5 g/ha [2, 6]: 3%
inhibition at 9 g/ha [2, 7]: 0%
inhibition at 18 g/ha [2, 8]: 19%
inhibition at 4.5 g/ha [2, 9]: 0%
inhibition at 9 g/ha [2, 10]: 1%
inhibition at 18 g/ha [2, 11]: 33%

CCCC1COC(Cn2cncn2)(c2ccc(Cl)cc2Cl)O1 (centres unmarked) [propiconazole]
inhibition at 0.3 ppm [3, 20]: 70%

CC(Cc1ccc(C(C)(C)C)cc1)CN1CCCCC1 (centres unmarked) [Fenpropidin, reference compound]
inhibition at 225 g/ha [2, 18]: 64%
inhibition at 450 g/ha [2, 18]: 61%
inhibition at 900 g/ha [2, 18]: 82%
inhibition at 225 g/ha [2, 19]: 64%
inhibition at 450 g/ha [2, 19]: 61%
inhibition at 900 g/ha [2, 19]: 82%
inhibition at 0.1 ppm [1, 4]: 0%
inhibition at 0.3 ppm [1, 5]: 50%

Cn1cc(C(=O)Nc2ccccc2-c2cc(F)c(F)c(F)c2)c(C(F)F)n1 [fluxapyroxad]
Activity (%) ([1]; single component, 0.1 ppm): 50%
Activity (%) [1, 4]: 50%
Activity (%) ([1]; single component, 0.3 ppm): 70%
Activity (%) [1, 5]: 70%

CC(C)C1C2CCC1c1c(NC(=O)c3cn(C)nc3C(F)F)cccc12 (centres unmarked) [isopyrazam]
Activity (%) ([1]; single component, 0.1 ppm): 70%
Activity (%) [1, 4]: 70%
Activity (%) ([1]; single component, 0.3 ppm): 70%
Activity (%) [1, 5]: 70%
Activity (%) [3, 4]: 50%
Activity (%) [3, 17]: 70%

O=C(NCCc1ncc(C(F)(F)F)cc1Cl)c1ccccc1C(F)(F)F [fluopyram]
inhibition at 0.1 ppm [1, 4]: 0%
inhibition at 0.3 ppm [1, 5]: 50%

S1SSSSSSS1 [sulphur]
inhibition at 0.3 ppm [1, 5]: 0%

Cc1cccc(-n2nnn(C)c2=O)c1COc1ccn(-c2ccc(Cl)cc2)n1 [Metyltetraprole]
Observed Activity (% of untreated) ([2]; applied alone, 9 g/ha): 2%
Observed Activity (% of untreated) ([2]; applied alone, 18 g/ha): 2%
Observed Activity (%) [2, 15]: 2%
Observed Activity (%) [2, 16]: 2%

OC(Cn1cncn1)(c1ccc(F)cc1)c1ccccc1F (centres unmarked) [flutriafol]
inhibition at 0.1 ppm [1, 4]: 20%
inhibition at 0.3 ppm [1, 5]: 70%

CC(C1CC1)C(O)(Cn1cncn1)c1ccc(Cl)cc1 (centres unmarked) [Cyproconazole]
inhibition at 22.5 g/ha [2, 13]: 51%
inhibition at 45 g/ha [2, 14]: 52%

CC(C1CC1)C(O)(Cn1cncn1)c1ccc(Cl)cc1 (centres unmarked) [cyproconazole]
inhibition at 0.1 ppm [1, 4]: 20%
inhibition at 0.3 ppm [3, 20]: 50%

CC1COC(Cn2cncn2)(c2ccc(Oc3ccc(Cl)cc3)cc2Cl)O1 (centres unmarked) [Difenoconazole]
inhibition at 22.5 g/ha [2, 13]: 0%
inhibition at 45 g/ha [2, 14]: 0%
